Assay results taken from patent US20190167647A1, “PHARMACEUTICAL COMPOSITION FOR STROKE TREATMENT BASED ON AMPK INHIBITION” (INDUSTRY ACADEMY COOPERATION FOUNDATION OF SEJONG UNIVERSITY, priority 2016, published 2019).

Experiments:
[1] = Free zinc concentration by pZn meter (test tube); type: physicochemical; conditions: 2.5 to 20 μM drug, ZnAF 2.5 μM
Protocol: In order to measure free zinc concentration levels, the drug #28 of the present invention was used for treatment in different concentrations (2.5 to 20 μM) along with ZnAF (2.5 μM) as a zinc fluorescent material on a test tube. On the other hand, a control group uses clioquinol (1 to 5 μM) well known as a very stronger zinc chelator. A free zinc concentration was measured by a pZn meter (NeuroBioTex Inc.).

[2] = tested on: cultured cerebral cortex neurons of a mouse; experiment: Inhibition of a variety of neurotoxicity, LDH assay (quaternary screening); type: cell-based; conditions: 20 μM, NMDA, FeCl2, H2O2, TPEN, staurosporine, etoposide toxicity
Protocol: More particularly, the cultured cerebral cortex neurons of a mouse were treated with 50 μM NMDA, 50 μM FeCl2, 100 μM H2O2, 2 μM TPEN (N,N,N′,N′-tetrakis (2-pyridylmethyl) ethylenediamine, Sigma), 500 nM staurosporine (Abcam) and 10 μM etoposide (Sigma), respectively, to induce neurotoxicity, followed by treatment using the selected 7 compounds at a concentration of 20 μM in order to observe neuro-protective effects. A degree of apoptosis of these cells was quantified by LDH assay. The neurotoxicity models used above include, for example, excitotoxicity, oxidative damage and apoptosis that are considered as a cause mechanism of stroke, in particular, the excitotoxicity model was NMDA, the oxidative damage model was iron toxicity and H2O2 toxicity models, and the apoptosis model was TPEN, staurosporine and etoposide toxicity models. The TPEN is a zinc chelator which is well known to cause typical apoptosis in neuronal cells, staurosporine is an enzyme inhibitor (kinase inhibitor) which is also well known as one of typical apoptosis inductive materials, and etoposide is a drug known to cause apoptosis due to DNA damage.

[3] = tested on: cultured cerebral cortex neurons of a mouse; experiment: Intracellular free zinc after zinc exposure, FluoZin-3 (confocal microscope, fluorometer); type: cell-based
Protocol: In order to monitor whether an actual free zinc concentration in neuronal cells is increased or not, the cultured cerebral cortex neurons of a mouse were pre-treated with a FluoZin-3 staining material, exposed to high concentration zinc, and then, treated with 4C01 (20 μM), 4C07 (20 μM) and the drug #28 (20, 50 μM). Thereafter, images of these treated neurons were observed using a confocal laser fluorescence microscope, and a fluorescent size was quantitatively measured using a fluorescence photometer (fluorometer).

[4] = tested on: cultured cerebral cortex neurons of a mouse; experiment: Zinc ion permeable carrier test, ZinPyr-1; type: cell-based
Protocol: ZinPyr-1 is a fluorescent dye which has a lower Kd value than that of FluoZin-3 and is used to measure a change in a zinc concentration even at a lower concentration. Whether the drug #28 of the present invention can act as an ion permeable carrier was under observation using ZinPyr-1. More particularly, the cultured cerebral cortex neurons of a mouse were treated with ZinPyr-1 then treated with the drug #28 (0.05 μM) and clioquinol (0.5 μM) in a typically used neuronal cell culture medium, so as to determine a change in zinc ion concentrations in the neurons. Also, a non-treatment group was used as a control group.
Therefore, after adding a further 0.5 μM concentration of zinc to the cell culture medium, a change in zinc concentration in the cells was under observation.

[5] = tested on: cultured cerebral cortex neurons of a mouse; experiment: Zinc neurotoxicity inhibition, LDH assay (tertiary screening); type: cell-based; conditions: 300 μM zinc 10 min
Protocol: Cerebral cortex neurons of a mouse used in the present invention were extracted from the mouse embryos brain and cultured, followed by further culturing the same using a Dulbecco's modified Eagle's medium (DMEM, Gibco, Grand Island, N.Y., US) containing 5% fetal bovine serum (FBS) and 5% horse serum (HS) under conditions of 95% humidity, 5% CO2 and 37° C. temperature. For activation and differentiation of the above cells, these cells were proliferated at a density of 2×10^4 cells in 24-well tissue culture plate. Further, prior to treatment using zinc and the compounds, the cells were incubated in MEM medium without FBS and HS.
More particularly, the cultured cerebral cortex neurons of a mouse were briefly exposed to 300 μM zinc for 10 minutes, and then treated with the selected 40 drugs, respectively, in order to observe neuro-protective effects. A degree of neuronal death of these cells was quantified by LDH assay wherein effects of individual drugs were averaged to result in a numerical value, and separate experiments were performed on each of the selected drugs 4 times, respectively (FIG. 4).

neuronal cells = experiment: Ionomycin (calcium ionophore) neurotoxicity; type: cell-based; conditions: 10 to 60 μM tested
Protocol: (§1) In order to determine whether the above result is obtained by the chelation of Ca^2+ ions other than the drug #28, protective effects of the drug #28 (10 to 60 μM) after treatment using ionomycin, which is a calcium ion permeable carrier (‘calcium ionophore’) directly increasing the intracellular calcium concentration, were under observation. Further, using a Fura-2 dye that is combined with calcium to represent fluorescence, it was monitored whether the drug #28 is combined with calcium on a test tube and represents chelating effects.

[6] = Calcium chelation with Fura-2 dye (test tube); type: physicochemical
Protocol: as §1

[7] = Free zinc concentration by fluorescent dye (Newport green DCF, FluoZin-3); type: physicochemical
Protocol: Further, in conjunction with clioquinol (20 μM) or the drug #28 (20 μM), a zinc fluorescent dye, i.e., Newport green DCF (0.5 μM, Kd(Zn)=1 uM) or FluoZin-3 (0.5 μM, Kd(Zn)=15 nM) was used for measurement of free zinc concentration.

mouse cortical cultures [8] = experiment: TPEN-induced caspase-3 activity; type: cell-based
Source text: (§2) Generally, application of TPEN as a zinc chelator easily flowing into the cells causes a cell death in the form of typical apoptosis (EDTA is not introduced into the cells). When adding zinc to the above treatment, intracellular free zinc ions are retained thus to reduce neuronal death and further reduce caspase-3 protease activity in the apoptosis process. Under expectation such that: the drug #28 and clioquinol may not only serve as a chelator but also play a role of an ion permeable carrier; these drugs flow into cells as combined with zinc; thereafter, the zinc is removed from the drug because a concentration of free zinc in the cytoplasm is too low; therefore, the concentration of free zinc in the cytoplasm is increased thus to reduce neurotoxicity due to TPEN, caspase-3 activity and neurotoxicity (LDH secretion) were under observation after treatment using zinc, the drug #28 and clioquinol.

mouse cortical cultures [9] = experiment: TPEN-induced neurotoxicity (LDH secretion); type: cell-based
Source text: as §2

## O=C1N=C(Nc2cccc(O)c2)S/C1=C\c1c[nH]c2ccccc12 [compound 28, (Z)-5-((1H-indol-3-yl)methylene)-2-((3-hydroxyphenyl)amino)thiazol-4(5H)-one]
[1]
  free zinc concentration: reduced in a concentration-dependent manner
[2]
  inhibitory effects on neurotoxicity: inhibitory effects on any toxicity
[3]; 4C01, 4C07 20 μM, #28 20, 50 μM, fluorometer
  increase in intracellular free zinc, fluorescence magnitude: inhibit an increase in intracellular free zinc to the similar level
[3]; high concentration zinc, 20, 50 μM, confocal microscope
  increase in free zinc in the neurons: significantly reduced
[4]; #28 0.05 μM, clioquinol 0.5 μM
  increase of zinc in neurons, general culture conditions: not clearly demonstrated
[4]; further 0.5 μM zinc added to the cell culture medium
  increase of zinc in neurons, zinc-supplemented medium: significant increase in zinc
[5]
  inhibition of zinc toxicity: significantly inhibit zinc toxicity
Neuronal cells
  concentration exhibiting toxicity protective effects against ionomycin: more than 40 μM
[6]
  affinity to calcium ions versus zinc ions: lower affinity to calcium ions than zinc ions
[6]; Fura-2 dye, test tube
  chelating effects for calcium: shows the chelating effects for calcium in a high concentration
[7]
  zinc affinity compared to clioquinol: considerably low compared to clioquinol
[7]; 20 μM, FluoZin-3 (FIG. 13)
  free zinc concentration, low concentration zinc: did not show remarkable effects
[7]; 20 μM, Newport green DCF (FIG. 12)
  free zinc concentration, high concentration zinc: exhibited effects of decreasing the free zinc concentration
[7]; 20 μM, Newport green DCF or FluoZin-3
  free zinc ions: reduce free zinc ions
Mouse cortical cultures [8]
  caspase-3 activity induced by TPEN: significantly reduce caspase-3 activity induced by TPEN
Mouse cortical cultures [9]
  neurotoxicity by TPEN: decrease neurotoxicity by TPEN
